{
  "source": "BigSolDB 2.1",
  "data": [
    {"smiles": "Nc1cccnc1", "values": [
      {"measurement": "solubility (mole fraction)", "setting": "in acetone, 288.15 K", "result": 0.155},
      {"measurement": "solubility (mole fraction)", "setting": "in acetone, 293.15 K", "result": 0.194},
      {"measurement": "solubility (mole fraction)", "setting": "in acetone, 298.15 K", "result": 0.244},
      {"measurement": "solubility (mole fraction)", "setting": "in acetone, 303.15 K", "result": 0.305},
      {"measurement": "solubility (mole fraction)", "setting": "in acetone, 308.15 K", "result": 0.38},
      {"measurement": "solubility (mole fraction)", "setting": "in acetone, 313.15 K", "result": 0.468},
      {"measurement": "solubility (mole fraction)", "setting": "in acetone, 318.15 K", "result": 0.565},
      {"measurement": "solubility (mole fraction)", "setting": "in acetone, 323.15 K", "result": 0.668},
      {"measurement": "solubility (mole fraction)", "setting": "in n-butyl acetate, 288.15 K", "result": 0.432},
      {"measurement": "solubility (mole fraction)", "setting": "in n-butyl acetate, 293.15 K", "result": 0.481},
      {"measurement": "solubility (mole fraction)", "setting": "in n-butyl acetate, 298.15 K", "result": 0.537},
      {"measurement": "solubility (mole fraction)", "setting": "in n-butyl acetate, 303.15 K", "result": 0.591},
      {"measurement": "solubility (mole fraction)", "setting": "in n-butyl acetate, 308.15 K", "result": 0.65},
      {"measurement": "solubility (mole fraction)", "setting": "in n-butyl acetate, 313.15 K", "result": 0.712},
      {"measurement": "solubility (mole fraction)", "setting": "in n-butyl acetate, 318.15 K", "result": 0.77},
      {"measurement": "solubility (mole fraction)", "setting": "in n-butyl acetate, 323.15 K", "result": 0.835}
    ]}
  ]
}
